# Experiments:
# Assay type in all cases: biochemical
# recombinant GTase A962 = biological target: T1, recombinant GTase A962 (Arabidopsis thaliana, UniProt O82382); test: Specific activity of recombinant GTase producing O-glucosides against lignin precursors (HPLC); conditions: 30° C.; ND = not detected
# T1 construct: made in house; host or cells: E. coli
# T1 sequence (O82382 1-474): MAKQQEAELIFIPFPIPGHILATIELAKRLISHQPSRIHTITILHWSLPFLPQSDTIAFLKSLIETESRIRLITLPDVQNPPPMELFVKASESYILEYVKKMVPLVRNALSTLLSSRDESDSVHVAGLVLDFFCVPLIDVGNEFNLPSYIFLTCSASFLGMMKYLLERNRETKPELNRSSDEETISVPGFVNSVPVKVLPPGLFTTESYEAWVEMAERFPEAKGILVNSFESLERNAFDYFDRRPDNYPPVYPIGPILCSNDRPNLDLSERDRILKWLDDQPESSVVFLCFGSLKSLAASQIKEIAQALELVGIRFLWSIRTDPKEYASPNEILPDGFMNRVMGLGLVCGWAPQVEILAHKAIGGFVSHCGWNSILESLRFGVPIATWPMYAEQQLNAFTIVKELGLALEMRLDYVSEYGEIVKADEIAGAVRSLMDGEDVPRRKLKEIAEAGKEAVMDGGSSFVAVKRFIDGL
# recombinant GTase A961 = biological target: T2, recombinant GTase A961 (Arabidopsis thaliana, UniProt O82381); test: as above; conditions: 30° C.; ND = not detected
# T2 construct: made in house; host or cells: E. coli
# T2 sequence (O82381 1-481): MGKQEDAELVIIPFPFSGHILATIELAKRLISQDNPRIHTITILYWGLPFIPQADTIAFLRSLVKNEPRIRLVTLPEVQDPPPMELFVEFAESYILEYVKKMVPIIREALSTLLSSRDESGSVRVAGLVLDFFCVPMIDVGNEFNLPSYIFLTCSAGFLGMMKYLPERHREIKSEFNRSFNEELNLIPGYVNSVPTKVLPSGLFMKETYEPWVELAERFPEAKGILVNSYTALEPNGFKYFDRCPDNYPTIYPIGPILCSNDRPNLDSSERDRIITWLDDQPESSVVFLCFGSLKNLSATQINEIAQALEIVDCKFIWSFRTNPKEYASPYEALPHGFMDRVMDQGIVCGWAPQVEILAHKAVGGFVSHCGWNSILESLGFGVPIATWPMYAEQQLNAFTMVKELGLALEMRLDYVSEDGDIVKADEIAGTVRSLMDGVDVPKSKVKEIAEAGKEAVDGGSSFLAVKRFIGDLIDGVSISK
# recombinant GTase A42 = biological target: T3, recombinant GTase A42 (Arabidopsis thaliana, UniProt O23401); test: Kinetic studies (Michaelis-Menten) on recombinant GTase producing glucose esters; conditions: glucose ester formation
# T3 construct: made in house; host or cells: E. coli
# T3 sequence (O23401 1-479): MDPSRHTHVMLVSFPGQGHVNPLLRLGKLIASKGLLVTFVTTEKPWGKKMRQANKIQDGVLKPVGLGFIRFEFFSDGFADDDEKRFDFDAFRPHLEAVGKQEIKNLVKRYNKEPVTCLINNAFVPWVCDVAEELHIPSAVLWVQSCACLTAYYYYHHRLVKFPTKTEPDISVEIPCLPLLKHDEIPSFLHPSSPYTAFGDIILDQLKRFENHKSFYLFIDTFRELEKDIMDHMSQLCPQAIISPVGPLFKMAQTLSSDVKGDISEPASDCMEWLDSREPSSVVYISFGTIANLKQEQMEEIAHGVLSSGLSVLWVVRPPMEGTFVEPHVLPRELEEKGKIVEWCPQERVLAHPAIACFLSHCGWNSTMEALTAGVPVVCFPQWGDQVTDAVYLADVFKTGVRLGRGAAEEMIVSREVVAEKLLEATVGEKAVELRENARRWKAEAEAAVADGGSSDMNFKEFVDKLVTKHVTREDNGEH
smiles,measurement,setting,value
O=C(O)/C=C/c1ccc(O)cc1 [p-coumaric acid],Specific activity of A962 (substrate converted to 4-O-glucoside),recombinant GTase A962,0.01 nkat/mg
same,Specific activity of A961 (substrate converted to 4-O-glucoside),recombinant GTase A961,0.01 nkat/mg
"COc1cc(/C=C/C(=O)O)ccc1O [Ferulic acid, ferulic acid]",Vmax (A42),recombinant GTase A42,18.35 nkat/mg

# From US7335814B2, “Transgenic cells expressing glucosyltransferase nucleic acids” (The University of York, priority 2000, dated 2008)
